The source of these data is patent US12221448B2, “Selective PI3Kδ inhibitor and use thereof” (TARAPEUTICS SCIENCE INC., priority 2018, dated 2025).

Molecules are shown by their SMILES.

The target in this assay is T1, PI3Kδ (Homo sapiens, UniProt O00329).
T1 construct: purchased Invitrogen (US)
T1 sequence (O00329 whole entry): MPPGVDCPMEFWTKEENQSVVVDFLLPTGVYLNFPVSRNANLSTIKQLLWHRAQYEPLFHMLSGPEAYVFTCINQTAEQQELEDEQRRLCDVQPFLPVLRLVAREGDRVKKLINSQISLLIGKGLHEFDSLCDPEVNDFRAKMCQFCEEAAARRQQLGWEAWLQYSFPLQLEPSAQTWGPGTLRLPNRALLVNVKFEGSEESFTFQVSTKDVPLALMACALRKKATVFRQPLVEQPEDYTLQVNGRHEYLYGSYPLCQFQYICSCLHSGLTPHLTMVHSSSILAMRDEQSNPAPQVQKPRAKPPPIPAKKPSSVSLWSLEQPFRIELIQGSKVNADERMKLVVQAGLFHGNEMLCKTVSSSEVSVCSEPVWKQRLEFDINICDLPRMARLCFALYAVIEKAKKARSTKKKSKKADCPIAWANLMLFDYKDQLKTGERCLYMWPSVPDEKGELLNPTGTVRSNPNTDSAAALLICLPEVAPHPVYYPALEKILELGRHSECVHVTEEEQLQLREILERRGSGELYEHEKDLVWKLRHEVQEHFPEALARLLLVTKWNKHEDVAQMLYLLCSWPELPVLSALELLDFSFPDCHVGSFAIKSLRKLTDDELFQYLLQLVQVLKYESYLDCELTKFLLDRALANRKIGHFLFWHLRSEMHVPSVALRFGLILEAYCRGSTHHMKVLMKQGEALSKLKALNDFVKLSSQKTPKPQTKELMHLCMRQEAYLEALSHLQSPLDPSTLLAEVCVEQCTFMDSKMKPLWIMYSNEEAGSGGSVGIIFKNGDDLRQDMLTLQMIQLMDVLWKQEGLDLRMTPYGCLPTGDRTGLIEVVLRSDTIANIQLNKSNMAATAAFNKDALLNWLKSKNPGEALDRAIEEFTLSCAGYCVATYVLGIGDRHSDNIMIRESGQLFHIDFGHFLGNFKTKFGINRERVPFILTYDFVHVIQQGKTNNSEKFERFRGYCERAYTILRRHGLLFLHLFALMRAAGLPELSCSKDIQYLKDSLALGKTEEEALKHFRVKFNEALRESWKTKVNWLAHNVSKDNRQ
T1 sequence (P27986 whole entry partner): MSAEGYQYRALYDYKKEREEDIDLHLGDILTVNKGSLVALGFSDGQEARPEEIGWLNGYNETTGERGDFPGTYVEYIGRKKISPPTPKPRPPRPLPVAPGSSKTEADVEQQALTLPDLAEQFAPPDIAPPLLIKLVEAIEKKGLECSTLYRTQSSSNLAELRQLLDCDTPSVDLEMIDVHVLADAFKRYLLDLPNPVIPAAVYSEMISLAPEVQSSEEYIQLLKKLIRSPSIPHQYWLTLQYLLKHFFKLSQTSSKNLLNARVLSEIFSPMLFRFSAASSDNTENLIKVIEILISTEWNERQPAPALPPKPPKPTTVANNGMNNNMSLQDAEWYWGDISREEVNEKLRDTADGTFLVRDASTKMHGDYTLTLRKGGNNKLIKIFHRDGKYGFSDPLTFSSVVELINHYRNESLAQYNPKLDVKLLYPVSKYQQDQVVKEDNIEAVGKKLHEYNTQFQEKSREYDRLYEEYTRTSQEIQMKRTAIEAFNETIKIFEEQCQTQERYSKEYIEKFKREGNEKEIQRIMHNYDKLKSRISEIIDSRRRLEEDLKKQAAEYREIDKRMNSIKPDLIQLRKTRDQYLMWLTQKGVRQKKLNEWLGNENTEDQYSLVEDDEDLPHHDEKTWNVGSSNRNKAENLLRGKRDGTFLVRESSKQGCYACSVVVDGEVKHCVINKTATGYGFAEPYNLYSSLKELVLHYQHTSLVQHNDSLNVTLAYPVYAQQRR
Put plainly: In vitro enzyme activity (ADP-Glo) against PI3Kδ. The conditions noted are these: Table 2; ATP 50 μM, PIP2:PS 50 μM. Type of assay: biochemical. The procedure: In vitro enzyme activity experiments were performed to determine the IC50 values of the compounds against PI3K family type I kinases (PI3Kα, PI3Kβ, PI3Kγ, PI3Kδ) and type II kinases (PIK3C2A, PIK3C2B). Protein kinases PI3Kα, PI3Kγ, PI3Kδ, PIK3C2A, and PIK3C2B were all purchased from Invitrogen (US); protein kinase PI3Kβ was purchased from sigma (US); the three substrates PIP2: PS, PI and PI: PS were purchased from Invitrogen (US).
Protein kinases diluted to a certain concentration, i.e., PI3Kα 5.4 μL (with a final concentration of 0.16 ng/μL), PI3Kβ 5.4 μL (with a final concentration of 6 ng/μL), PI3Kδ 5.4 μL (with a final concentration of 1 ng/μL), PI3Kγ 5.4 μL (with a final concentration of 5 ng/μL), PIK3C2A 5.4 μL (with a final concentration of 5 ng/μL), and PIK3C2B 5.4 μL (with a final concentration of 10 ng/μL) were respectively reacted with 1 μL of the serially diluted drug compounds for 1 hour at room temperature (final drug concentrations were 10 μM, 1 μM, 0.3 μM, 0.1 μM, 0.03 μM, 0.01 μM, 0.003 μM, and 0.001 μM, respectively).
To each reaction tube of the above PI3K family type I kinases, 6 μL of a mixture of ATP (Promega, US) and substrate PIP2:PS (final concentrations of ATP in the reaction systems of kinases PI3Kα, and PI3Kβ were 10 μM, and final concentrations of ATP in the reaction systems of kinases PI3Kδ, and PI3Kγ were 50 μM, and final concentrations of the substrate PIP2:PS were all 50 μM) was added, and reacted at 37° C. for 1 hour. The reaction buffer was 50 mM Hepes (pH 7.5) (Promega, USA), 3 mM MgCl2, 1 mM EGTA (Promega, US), 100 mM NaCl, 0.03% CHAPS (Promega, US).
5 μL of kinase solution after reaction was placed in a 384-well plate (Corning, US), and 5 μL of ADP-Glo™ reagent (Promega, US) was added thereto and reacted at room temperature for 40 minutes to stop the kinase reaction and exhaust the remaining ATP; 10 μL of kinase detection reagent was added to convert ADP into ATP, and coupled luciferase/luciferin reaction was utilized to detect the newly synthesized ATP. Envision was utilized for readout and plotting, and Graphpad IC50 value was calculated.
`CC(c1nc2cccc(F)c2c(=O)n1C1CCC1)n1nc(-c2ccc3c(c2)OCO3)c2c(N)ncnc21` (stereo not drawn) [Compound 35, 2-(1-(4-amino-3-(benzo[d][1,3]dioxol-5-yl)-1H-pyrazolo [3,4-d]pyrimidin-1-yl)ethyl)-3-cyclobutyl-5-fluoroquinazolin-4(3H)-one]: the IC50 turned out to be 0.0262 µM. In other words, the double-digit nanomolar range.

As to `CC(c1nc2cccc(F)c2c(=O)n1C1CCCC1)n1nc(-c2cccc(F)c2)c2c(N)ncnc21` (stereo not drawn) [Compound 12, 2-(1-(4-amino-3-(3-fluorophenyl)-1H-pyrazolo [3,4-d]pyrimidin-1-yl)ethyl)-3-cyclopentyl-5-fluoroquinazolin-4(3H)-one], the half-maximal inhibitory concentration (IC50) was found to be 0.082 µM.

`CC(C)c1ccc(-c2nn(C(C)c3nc4cccc(F)c4c(=O)n3C3CCC3)c3ncnc(N)c23)cc1` (stereo not drawn) [Compound 28, 2-(1-(4-amino-3-(4-isopropylphenyl)-1H-pyrazolo [3,4-d]pyrimidin-1-yl)ethyl)-3-cyclobutyl-5-fluoroquinazolin-4(3H)-one]: the IC50 turned out to be 0.0833 µM.

For the molecule `CCC(c1nc2cccc(F)c2c(=O)n1C1CC1)n1nc(-c2ccc(OC)cc2)c2c(N)ncnc21` (stereo not drawn) [Compound 40, 2-(1-(4-amino-3-(4-methoxyphenyl)-1H-pyrazolo [3,4-d]pyrimidin-1-yl)propyl)-3-cyclopropyl-5-fluoroquinazolin-4(3H)-one], the half-maximal inhibitory concentration (IC50) is 0.0289 µM.

In turn, `Cc1ccc(-c2nn(C(C)c3nc4cccc(F)c4c(=O)n3C3CCCC3)c3ncnc(N)c23)cc1F` (stereo not drawn) [Compound 25, 2-(1-(4-amino-3-(3-fluoro-4-methylphenyl)-1H-pyrazolo [3,4-d]pyrimidin-1-yl)ethyl)-3-cyclopentyl-5-fluoroquinazolin-4(3H)-one] registered an IC50 of 0.0175 µM.

As for `Cc1ccc(-c2nn(C(C)c3nc4ccc(F)cc4c(=O)n3C3CC3)c3ncnc(N)c23)cc1F` (stereo not drawn) [Compound 43, 2-(1-(4-amino-3-(3-fluoro-4-methylphenyl)-1H-pyrazolo [3,4-d]pyrimidin-1-yl)ethyl)-3-cyclopropyl-6-fluoroquinazolin-4-(3H)-one], the IC50 was determined as 0.0273 µM.

Regarding `COc1ccc(-c2nn(C(C)c3nc4cccc(F)c4c(=O)n3C3CCC3)c3ncnc(N)c23)cc1C` (stereo not drawn) [Compound 34, 2-(1-(4-amino-3-(4-methoxy-3-methylphenyl)-1H-pyrazolo [3,4-d]pyrimidin-1-yl)ethyl)-3-cyclobutyl-5-fluoroquinazolin-4(3H)-one], it took 0.0418 µM to reach half-maximal inhibition (IC50).

As for `COc1ccc(-c2nn(C(C)c3nc4cccc(F)c4c(=O)n3C3CCCC3)c3ncnc(N)c23)cc1C` (stereo not drawn) [Compound 36, 2-(1-(4-amino-3-(4-methoxy-3-methylphenyl)-1H-pyrazolo [3,4-d]pyrimidin-1-yl)ethyl)-3-cyclopentyl-5-fluoroquinazolin-4(3H)-one], the IC50 was 0.0162 µM.

In turn, `CC(c1nc2cccc(F)c2c(=O)n1C1CCCC1)n1nc(-c2cnc3ccccc3c2)c2c(N)ncnc21` (stereo not drawn) [Compound 26, 2-(1-(4-amino-3-(quinolin-3-yl)-1H-pyrazolo [3,4-d]pyrimidin-1-yl)ethyl)-3-cyclopentyl-5-fluoroquinazolin-4(3H)-one] registered an IC50 of 0.0557 µM. This IC50 is about 3.4-fold higher than that of the molecule before.

Take `COc1ccc(-c2nn(C(C)c3nc4ccccc4c(=O)n3C3CC3)c3ncnc(N)c23)cc1` (stereo not drawn) [Compound 45, 2-(1-(4-amino-3-(4-methoxyphenyl)-1H-pyrazolo [3,4-d]pyrimidin-1-yl)ethyl)-3-cyclopropylquinazolin-4(3H)-one]: the IC50 is 0.0272 µM.

Consider `CC(c1nc2cccc(F)c2c(=O)n1C1CCCC1)n1nc(-c2ccc3c(c2)OCO3)c2c(N)ncnc21` (stereo not drawn) [Compound 46, 2-(1-(4-amino-3-(benzo[d][1,3]dioxol-5-yl)-1H-pyrazolo [3,4-d]pyrimidin-1-yl)ethyl)-3-cyclopentyl-5-fluoroquinazolin-4(3H)-one], for which the IC50 was 0.0347 µM. The IC50 values of the last two molecules are within 1.5-fold of each other.

Molecule `CC(C)c1ccc(-c2nn(C(C)c3nc4cccc(F)c4c(=O)n3C3CCCC3)c3ncnc(N)c23)cc1` (stereo not drawn) [Compound 24, 2-(1-(4-amino-3-(4-isopropylphenyl)-1H-pyrazolo [3,4-d]pyrimidin-1-yl)ethyl)-3-cyclopentyl-5-fluoroquinazolin-4(3H)-one] had an IC50 of 0.0215 µM.

Broadly, the IC50 is the concentration that gives 50% inhibition.
